Reference: patent publication US7452887B2, “Quinoline- and isoquinoline-based compounds exhibiting ATP-utilizing enzyme inhibitory activity, and compositions, and uses thereof” (Amphora Discovery Corporation, priority 2004, dated 2008)

Legend:
Test in all cases: HTS ATP-utilizing enzyme assay, off-chip mobility-shift (Caliper HTS 250)
Assay type in all cases: biochemical
Settings in all cases: test compound 10 μM, kinase listed = active (greater than six-sigma from the mean activity of inactive compounds)
[1] = biological target: KIT (Homo sapiens, UniProt P10721)
How it was run: (§1)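 Steps: compound added at 10 μM final; enzyme then peptide substrate added in HEPES pH 7.5, Triton X-100, BSA buffer; incubation 2.5 hrs at 20° C. to 22° C.; EDTA quench; microfluidic separation of substrate and phosphoproduct. DMSO wells set 0% inhibition, EDTA wells 100%.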

[2] = biological target: T1, FLT-3 (Homo sapiens, UniProt P36888)
T1 sequence (P36888 27-993): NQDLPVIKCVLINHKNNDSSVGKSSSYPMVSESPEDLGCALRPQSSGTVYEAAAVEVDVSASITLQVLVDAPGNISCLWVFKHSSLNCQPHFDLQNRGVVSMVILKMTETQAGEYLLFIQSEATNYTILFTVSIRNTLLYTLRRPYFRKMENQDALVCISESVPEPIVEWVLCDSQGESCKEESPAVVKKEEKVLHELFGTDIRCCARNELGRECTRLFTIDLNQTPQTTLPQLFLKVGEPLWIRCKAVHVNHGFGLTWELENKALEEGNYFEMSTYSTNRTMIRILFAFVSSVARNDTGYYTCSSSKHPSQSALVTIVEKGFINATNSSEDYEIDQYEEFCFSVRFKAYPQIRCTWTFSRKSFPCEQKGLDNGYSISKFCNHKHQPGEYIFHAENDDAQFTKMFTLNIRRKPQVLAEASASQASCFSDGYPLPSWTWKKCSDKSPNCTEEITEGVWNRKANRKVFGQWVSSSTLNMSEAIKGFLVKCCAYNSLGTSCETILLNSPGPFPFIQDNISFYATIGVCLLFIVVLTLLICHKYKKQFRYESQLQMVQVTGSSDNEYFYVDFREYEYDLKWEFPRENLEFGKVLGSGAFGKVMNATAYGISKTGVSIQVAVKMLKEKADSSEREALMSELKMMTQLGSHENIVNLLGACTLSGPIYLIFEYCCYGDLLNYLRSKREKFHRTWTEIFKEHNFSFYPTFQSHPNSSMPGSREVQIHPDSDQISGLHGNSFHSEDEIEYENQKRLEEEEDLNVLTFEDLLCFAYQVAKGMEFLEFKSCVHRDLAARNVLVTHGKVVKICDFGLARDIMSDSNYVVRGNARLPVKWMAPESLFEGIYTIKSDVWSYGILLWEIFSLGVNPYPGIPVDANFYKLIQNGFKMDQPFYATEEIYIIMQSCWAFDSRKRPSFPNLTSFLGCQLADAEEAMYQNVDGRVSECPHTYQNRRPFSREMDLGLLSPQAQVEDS
How it was run: as §1

[3] = biological target: T2, CHEK1 (Homo sapiens, UniProt O14757)
T2 sequence (O14757 1-476): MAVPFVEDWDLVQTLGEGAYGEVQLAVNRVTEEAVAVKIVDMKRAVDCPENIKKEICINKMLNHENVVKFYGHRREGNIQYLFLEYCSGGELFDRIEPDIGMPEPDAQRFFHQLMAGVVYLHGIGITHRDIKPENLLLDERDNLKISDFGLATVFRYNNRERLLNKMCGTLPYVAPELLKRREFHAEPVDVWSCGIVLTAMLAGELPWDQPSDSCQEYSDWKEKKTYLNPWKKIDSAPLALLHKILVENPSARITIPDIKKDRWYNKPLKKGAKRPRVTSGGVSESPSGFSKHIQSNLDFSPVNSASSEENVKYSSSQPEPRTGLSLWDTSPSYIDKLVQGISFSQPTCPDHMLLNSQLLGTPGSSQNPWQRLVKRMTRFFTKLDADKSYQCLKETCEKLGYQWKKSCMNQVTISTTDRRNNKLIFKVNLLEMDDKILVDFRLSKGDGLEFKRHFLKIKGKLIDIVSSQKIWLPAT
How it was run: as §1

KIT, sequence (P10721 26-976): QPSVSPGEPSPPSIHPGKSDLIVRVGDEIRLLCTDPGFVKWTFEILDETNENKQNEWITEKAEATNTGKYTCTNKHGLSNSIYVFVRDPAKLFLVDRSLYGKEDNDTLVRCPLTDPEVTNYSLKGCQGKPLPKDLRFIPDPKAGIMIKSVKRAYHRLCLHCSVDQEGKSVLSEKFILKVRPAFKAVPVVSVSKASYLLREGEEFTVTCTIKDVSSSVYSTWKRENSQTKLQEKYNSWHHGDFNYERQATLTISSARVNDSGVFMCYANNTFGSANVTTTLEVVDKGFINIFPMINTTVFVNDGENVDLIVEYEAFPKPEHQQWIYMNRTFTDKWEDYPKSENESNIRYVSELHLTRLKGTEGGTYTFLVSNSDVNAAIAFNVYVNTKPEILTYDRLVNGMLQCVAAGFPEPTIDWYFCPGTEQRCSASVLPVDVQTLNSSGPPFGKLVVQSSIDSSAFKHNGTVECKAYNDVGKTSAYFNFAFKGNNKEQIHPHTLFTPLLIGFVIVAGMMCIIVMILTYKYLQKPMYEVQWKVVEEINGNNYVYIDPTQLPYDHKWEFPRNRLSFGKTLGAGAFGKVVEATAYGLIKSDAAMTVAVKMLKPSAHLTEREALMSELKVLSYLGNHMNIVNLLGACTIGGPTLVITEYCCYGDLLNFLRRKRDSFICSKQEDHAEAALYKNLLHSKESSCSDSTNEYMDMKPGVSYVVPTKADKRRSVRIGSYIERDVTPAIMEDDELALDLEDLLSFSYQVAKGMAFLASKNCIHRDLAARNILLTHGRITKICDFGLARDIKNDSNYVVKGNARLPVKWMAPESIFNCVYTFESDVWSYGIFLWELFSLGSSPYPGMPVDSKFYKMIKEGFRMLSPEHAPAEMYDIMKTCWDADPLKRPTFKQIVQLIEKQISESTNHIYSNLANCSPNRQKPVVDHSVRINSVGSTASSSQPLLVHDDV

Row | Activity [1] | Activity [2] | Activity [3] | SMILES
1 | KIT | FLT-3 | – | COc1ccc(-c2ccc3nccc(N(C)c4ccc(N5CCN(C)CC5)cc4)c3c2)cc1 [6-(4-methoxyphenyl)-N-methyl-N-(4-(4-methylpiperazin-1-yl)phenyl)quinolin-4-amine]
2 | KIT | – | – | CN1CCN(c2ccc(Nc3ccnc4ccc(-c5cccc6ccccc56)cc34)cc2)CC1 [N-(4-(4-methylpiperazin-1-yl)phenyl)-6-(naphthalen-1-yl)quinolin-4-amine]
3 | KIT | FLT-3 | CHEK1 | COc1ccc(-c2ccc3nccc(Nc4ccc(N5CCNCC5)cc4)c3c2)cc1 [6-(4-methoxyphenyl)-N-(4-(piperazin-1-yl)phenyl)quinolin-4-amine]
4 | – | FLT-3 | – | CN1CCN(c2ccc(Nc3ccnc4ccc(-c5ccc(O)cc5)cc34)cc2)CC1 [4-(4-(4-(4-methylpiperazin-1-yl)phenylamino)quinolin-6-yl)phenol]
5 | – | – | CHEK1 | CN1CCN(c2ccc(Nc3ccnc4ccc(-c5ccc6ccccc6c5)cc34)cc2)CC1 [N-(4-(4-methylpiperazin-1-yl)phenyl)-6-(naphthalen-2-yl)quinolin-4-amine]
6 | KIT | FLT-3 | – | CN1CCN(c2ccc(Nc3ccnc4ccc(-c5ccncc5)cc34)cc2)CC1 [N-(4-(4-methylpiperazin-1-yl)phenyl)-6-(pyridin-4-yl)quinolin-4-amine]
7 | KIT | FLT-3 | CHEK1 | c1ccc(-c2ccc3nccc(Nc4ccc(N5CCNCC5)cc4)c3c2)cc1 [6-phenyl-N-(4-(piperazin-1-yl)phenyl)quinolin-4-amine]
